The values that follow come from PMC11357484, “Investigating Changes in Pharmacokinetics of Steroidal Alkaloids from a Hydroethanolic Fritillariae thunbergii Bulbus Extract in 2,4-Dinitrobenzene Sulfonic Acid-Induced Colitis Rats” (Pharmaceuticals, 2024).

The conditions of series [1]: cited from earlier work.
Series [2] deals with LPS-stimulated RAW 264.7 cells. Briefly: Pro-inflammatory cytokine mRNA expression (qPCR) in LPS-stimulated RAW 264.7 cells. In kind it is cell-based, mouse. The following applies: 25 μg/mL; 24 h pretreatment then LPS 4 h; vs LPS alone. How it is done:
(§1) The RAW 264.7, a mouse macrophage cell line (American Type Culture Collection, Manassas, VA, USA), was grown in DMEM medium supplemented with 10% fetal bovine serum and 1% penicillin–streptomycin at 37 °C with 5% CO2.
To evaluate the anti-inflammatory effects of the active ingredients in FTB, the cells were seeded in 12-well plates at 3 × 10^5 cells/mL and treated with 25 μg/mL of the four steroidal alkaloids, peimine, peimisine, peiminine and sipeimine, respectively, a concentration determined to be non-toxic according to the cell viability assay. LPS (Sigma-Aldrich, St. Louis, MO, USA) from Escherichia coli O111:B4 was used as a control at a concentration of 10 μg/mL. Cells were pretreated with the compounds for 24 h, followed by treatment with LPS for 4 h. After cells were harvested, total RNA was extracted using a total RNA extraction kit (Samjung Bioscience, Daejeon, Republic of Korea), and the extracted RNA was reverse transcribed into cDNA. The synthesized cDNA was subjected to quantitative polymerase chain reaction to measure the mRNA expression levels of cytokines using the following forward and reverse primers: IL-1β, forward, 5′-[…]-3′; reverse, 5′-[…]-3′; IL-6, forward, 5′-[…]-3′; reverse, 5′-[…]-3′; TNF-α, forward, 5′-[…]-3′; reverse, 5′-[…]-3′; GAPDH, forward, 5′-[…]-3′; reverse, 5′-[…]-3′.
A general note: Quantitative PCR measures a nucleic acid by following its amplification.

For a further series, the system named is RAW 264.7 cells. Description: Cell viability (EZ-Cytox) in RAW 264.7 cells. As to conditions: 24 h incubation. In kind it is cell-based, mouse. As for the experimental part:
as §1
To determine cell viability against the four steroidal alkaloids, peimine, peimisine, peiminine, and sipeimine, RAW 264.7 cells were seeded at a density of 5 × 10^4 cells/well in 96-well plates and incubated overnight. Cells were then incubated with various concentrations of the four compounds (0, 0.78, 1.56, 3.13, 6.25, 12.5, 25, 50, and 100 μg/mL) for 24 h, respectively. Subsequently, 10 μL of EZ-Cytox (DoGenBio Co., Seoul, Republic of Korea) was added and incubated for 1 h. Absorbance was measured at 450 nm using an enzyme-linked immunosorbent assay reader (Bio-Rad Laboratories, Hercules, CA, USA). Cell viability was calculated by comparing the values measured with those of untreated cells.

A short description of series [3]: Pharmacokinetics of steroidal alkaloids after single oral FTB dose in normal and DNBS-induced colitis rats. In kind it is in vivo, Sprague–Dawley rats. As to conditions: for AUC_%Extrap_obs / AUClast / AUMClast / Cmax / MRT last / Tmax / half-life: oral FTB 1 g/kg single dose, plasma, mean ± SD, n = 5; for Cmax / MRT last / Tmax / half-life: male, Sprague-Dawley, rat, po, 1 g/kg; for half-life under colitis compared with normal conditions / systemic exposure under colitis condition compared with normal state: oral FTB 1 g/kg, DNBS vs normal rats. How it is done: Ten-week-old male Sprague–Dawley rats were obtained from Samtaco (Osan, Republic of Korea), quarantined, and acclimatized for one week before the experiments. All animal experiments were approved by the Animal Care and Use Committee of Chungnam National University (202304A-CNU-067). The rats were fasted for 14–16 h the day before administration of DNBS (Sigma-Aldrich). After the rats were anesthetized with isoflurane, the colitis group received a single dose of 30 mg/250 μL in 50% ethanol through a medical grade polyurethane catheter, injected rectally into the descending colon 8 cm from the anal sphincter. DNBS was administered slowly over 1 min, and the rats were kept supine in the Trendelenburg position for 3 min after injection to prevent leakage. The normal group received only 50% ethanol, following the same procedure as described above. The pharmacokinetic study was performed four days after DNBS administration, and both the normal and DNBS groups were orally administered a single dose of 1 g/kg FTB. Blood samples were obtained from the tail vein at 0, 0.5, 0.75, 1, 2, 4, 6, 8, 10, 12, 24, and 30 h, and the rats were sacrificed after the last blood collection. The plasma samples obtained were centrifuged at 16,000× g for 15 min and stored at −80 °C until analysis.
Plasma concentrations were measured using UPLC-MS/MS (Agilent Technologies Inc.) in the same manner as described above. 100 μL of plasma was vortexed with 20 μL ammonia water and 800 μL ethyl acetate for 15 min and centrifuged at 16,000× g for 15 min. After evaporating 800 μL of the supernatant under nitrogen at 40 °C, 50 μL of 50% methanol was added. The mixture was then vortexed and centrifuged, and 5 μL of the final extract was used for analysis.
For the plasma concentration analysis, the limit of detection and limit of quantification (LOQ) were defined based on the concentration of the analyte, which generated signal-to-noise (S/N) ratios of 3 and 10, respectively, following the “Guideline on Bioanalytical Method Validation” for the Ministry of Food and Drug Safety in Korea (MFDS 2023). Among the active ingredients of FTB, peimine, peimisine, peiminine, and sipeimine were detected in concentrations above the LOQ —the multiple reaction monitoring conditions of each of them are summarized in Supplementary Table S2. The calibration curves were linear over the concentration range of 0 to 2000 ng/mL, with a correlation coefficient of R^2 > 0.99. Precision and accuracy were evaluated by calculating the intra- and inter-day recoveries of quality control samples at three concentrations: 10, 50, and 100 ng/mL. The intra- and inter-day recoveries were within the range of 84.6 to 115.6%, and the coefficient of variation was less than 10%. Detailed validation results for the analysis method of peimine, peimisine, peiminine, and sipeimine are summarized in Supplementary Table S3.
The pharmacokinetic parameters were calculated based on a non-compartmental model using Monolix 2023R1 (Lixoft SAS, Simulations Plus Inc., Lancaster, CA, USA). The dosage of each component was calculated based on the content of the component within the FTB, and applied in the pharmacokinetics analysis. From the data analyzed, the Cmax of FTB and the time to Cmax (Tmax) were determined. Elimination half-life was obtained by linear regression of log-tranformed concentration data in the late phase. The AUC was estimated using the linear log-trapezoidal and linear up-log-down rules for the time of final concentration in each group.

Broadly, the Cmax is the highest concentration seen after dosing. In general, MRT last refers to a mean duration of stay, worked out from the concentration-time curve. A word on the Tmax: it is the time at which the peak concentration occurs. Usually half-life stands for the time needed for the level to fall by half in the phase considered. Low values mean rapid decline, high ones slow decline. With `C[C@H]1CC[C@@H]2N(C1)C[C@H]1[C@@H]3C[C@H]4[C@@H](CC(=O)[C@H]5C[C@@H](O)CC[C@@]54C)[C@@H]3CC[C@@H]1[C@]2(C)O` [peiminine], in series [1], the pKa result was “approximately 14” and the “partition coefficient (logP)” value is 3.9. Further, the “IL-6 mRNA expression lowered” value in series [2] is “approximately 5 fold”. In addition, in the series with RAW 264.7 cells, the “concentrations at which no toxicity was shown (cell viability)” value is 0 to 25000 ng/mL. For the same compound, in series [3] (DNBS-treated (colitis) rats), the AUC_%Extrap_obs is on record as 3.3 ± 2.9%, the AUClast worked out at 888.8 ± 286.0 h∗ng/mL, the AUMClast is listed as 3149.7 ± 1242.0 h∗h∗ng/mL and the highest level (Cmax) was 209 ± 51.1 ng/mL. Also, in series [3] (DNBS-treated (colitis) rats), the MRT last was determined as 3.6 ± 0.6 h, the time to peak (Tmax) was 1.3 ± 0.8 h and the half-life was 1.8 ± 0.9 h. In series [3] (normal rats), the highest level (Cmax) was 228 ± 110 ng/mL, the MRT last came out at 4.7 ± 1.1 h, the Tmax amounted to 1 ± 0.2 h and the half-life is 4.5 ± 2 h. In series [3] (normal rats), this compound had an AUC_%Extrap_obs of 14.5 ± 15.7%, an AUClast of 1172.4 ± 392.3 h∗ng/mL and an AUMClast of 5302.0 ± 1844.3 h∗h∗ng/mL. For the same compound, in series [3], the “half-life under colitis compared with normal conditions” value is given as “shorter half-life” and the “systemic exposure under colitis condition compared with normal state” value (“systemic exposure … compared with normal state” below) is on record as “no observable difference”.
As for `CC1=C2C[C@H]3[C@@H](CC(=O)C4C[C@@H](O)CC[C@@]43C)[C@@H]2CC[C@]12OC1C[C@H](C)CN[C@H]1[C@H]2C` (some centres unmarked) [peimisine], in series [1], the pKa entry is listed as “approximately 14” and the “partition coefficient (logP)” value is recorded as 2.7. Further, in series [2], the “IL-1β mRNA expression lowered” value is “about 6 fold” and the “TNF-α mRNA expression lowered” value was around 3 fold. The “concentrations at which no toxicity was shown (cell viability)” value in the series with RAW 264.7 cells is 0 to 25000 ng/mL. Further, in series [3] (DNBS-treated (colitis) rats), the AUC_%Extrap_obs is 8.9 ± 11.6%, the AUClast was 16,895.4 ± 5782.1 h∗ng/mL, the AUMClast is listed as 126,755.7 ± 54,141.2 h∗h∗ng/mL and the concentration peaked (Cmax) at 2330 ± 363 ng/mL. Besides, in series [3] (DNBS-treated (colitis) rats), the mean residence time MRT last turned out to be 7.3 ± 1.3 h, the Tmax turned out to be 1.5 ± 0.8 h and the half-life is 7.7 ± 4.9 h. Also, in series [3] (normal rats), the concentration peaked (Cmax) at 656 ± 672 ng/mL, the mean residence time (MRT last) stood at 5 ± 2 h, the Tmax is 0.9 ± 0.2 h and the half-life is 3.9 ± 1.7 h. For the same compound, in series [3] (normal rats), the AUC_%Extrap_obs is 5.3 ± 4.0%, the AUClast was 3959.3 ± 4738.6 h∗ng/mL and the AUMClast is on record as 23,522.8 ± 33,482.7 h∗h∗ng/mL. Also, the “systemic exposure … compared with normal state” value in series [3] is given as “approximately five times higher”.
Take `C[C@H]1CC[C@@H]2N(C1)C[C@H]1[C@@H]3C[C@H]4[C@@H](C[C@H](O)[C@H]5C[C@@H](O)CC[C@@]54C)[C@@H]3CC[C@@H]1[C@]2(C)O` [peimine]: the “partition coefficient (logP)” value in series [1] is reported as 4.1. Further, in the series with RAW 264.7 cells, the “concentrations at which no toxicity was shown (cell viability)” value was in the range of 0 to 25000 ng/mL. In series [3] (DNBS-treated (colitis) rats), the AUC_%Extrap_obs was found to be 6.6 ± 6.6%, the AUClast was 1076.9 ± 444.1 h∗ng/mL, the AUMClast stood at 2819.7 ± 1408.9 h∗h∗ng/mL and the highest level (Cmax) was 351 ± 150 ng/mL. Further, in series [3] (DNBS-treated (colitis) rats), the mean residence time (MRT last) is 2.7 ± 0.6 h, the Tmax turned out to be 1 ± 0.7 h and the half-life is 1.9 ± 0.7 h. Moreover, in series [3] (normal rats), the highest concentration (Cmax) turned out to be 356 ± 253 ng/mL, the MRT last was determined as 3.7 ± 0.8 h, the Tmax worked out at 0.7 ± 0.2 h and the half-life was 4 ± 2.5 h. Moreover, in series [3] (normal rats), the AUC_%Extrap_obs was found to be 6.7 ± 5.5%, the AUClast was determined as 1311.8 ± 762.6 h∗ng/mL and the AUMClast worked out at 4511.4 ± 2253.8 h∗h∗ng/mL. For the same compound, in series [3], the “half-life under colitis compared with normal conditions” value is “shorter half-life” and the “systemic exposure … compared with normal state” value is “no observable difference”.
In the case of `C[C@H]1CC[C@@H]2N(C1)C[C@H]1[C@@H]3C[C@H]4[C@@H](CC(=O)[C@H]5C[C@@H](O)CC[C@@]54C)[C@@H]3CC[C@H]1[C@]2(C)O` [sipeimine], in series [1], the pKa result is “approximately 14” and the “partition coefficient (logP)” value is 4.4. Also, the “concentrations at which no toxicity was shown (cell viability)” value with RAW 264.7 cells was 0 to 25000 ng/mL. In addition, in series [3] (DNBS-treated (colitis) rats), the AUC_%Extrap_obs amounted to 11.0 ± 8.3%, the AUClast came to 764.0 ± 285.5 h∗ng/mL, the AUMClast worked out at 3588.3 ± 1486.0 h∗h∗ng/mL and the Cmax turned out to be 162 ± 97 ng/mL. In addition, in series [3] (DNBS-treated (colitis) rats), the MRT last turned out to be 4.7 ± 0.6 h, the Tmax was found to be 2.4 ± 1.2 h and the half-life was 3.2 ± 1.6 h. Also, in series [3] (normal rats), the concentration peaked (Cmax) at 64.7 ± 13.4 ng/mL, the MRT last worked out at 5.4 ± 1.7 h, the Tmax was 1.3 ± 0.5 h and the half-life was 6.9 ± 5.6 h. In series [3] (normal rats), this compound displayed an AUC_%Extrap_obs of 10.4 ± 8.6%, an AUClast of 463.5 ± 232.8 h∗ng/mL and an AUMClast of 2675.8 ± 2026.3 h∗h∗ng/mL. Moreover, in series [3], the “half-life under colitis compared with normal conditions” value is recorded as “shorter half-life” and the “systemic exposure … compared with normal state” value is recorded as “no observable difference”.
